Test results as given in patent US3946013A, “1,3-BIS(Beta-ethylhexyl)-5-amino-5-methylhexahydropyrimidine-pyridine- 3-carboxylate, process for its preparation and pharmaceutical compositions containing this compound” (Wulfing; Johann A., priority 1973, dated 1976).
Structures can show the parent of a compound that is named as a salt.

Key:
female NMRI mice = test: LD50 acute toxicity in mice (Litchfield and Wilcoxon); format: in vivo; details: for Toxicity, LD50 i.p. / Toxicity, LD50 p.o.: female NMRI mice 20-30 g, 10 days observation, 14400 min
[1] = tested on: bacterial parent strains (Escherichia coli, Proteus vulgaris, Pseudomonas aeruginosa); test: bacteriostatic activity (serial dilution in thioglycolate nutrient solution); format: cell-based; details: for concentration at which activity is (still) shown (text): after 6 days at 30°C; for Bacteriostatic activity in relation to concentration (table): solutions containing 100 mg hexetidine, incubated at 30°C for 6 days
Protocol: For a determination of bacteriostatic activity, solutions of hexetidine, hexetidine oxalate and hexetidine nicotinate having the following compositions were compared: The inoculum suspension was obtained by inoculation of a sterile Petri dish containing nutrient agar (standard I) with a test culture of bacterial parent strains (Escherichia coli, Proteus vulgaris, Pseudomonas aeruginosa) and incubation at 30°C for 24 hours. The suspension was either used immediately or stored at +4°C. The organisms grown in the Petri dish were elutriated with 5 ml physiological brine solution and diluted 1:10 with the same solution to a volume of 50 ml. Then 250 ml double concentrated thioglycolate solution (60 g/l) were mixed with 100 drops (about 5 ml) of the above 1:10 diluted primary culture of bacterial parent strains and shaken to obtain a uniform suspension. Serial dilutions were prepared for each of the above-mentioned compound solutions in the following concentrations, each comprising 10 test tubes of […]: hexetidine per ml: 1,000; 500; 250; 125; 62.5; about 31; about 16; about 8; about 4; about 2. Next, 5 ml double concentrated thioglycolate nutrient solution inoculated with the test organisms were added to each test tube by means of a pipet. Each test tube thus contained 50% of the final concentration. […]

[2] = antibacterial activity, general statement; format: cell-based
[3] = solubility (testability in the bacteriostatic test); format: physicochemical; details: could not be tested in bacteriostatic test
[4] = LD50 acute toxicity in mice (Litchfield and Wilcoxon); format: in vivo; details: mouse, in vivo, po; female NMRI mice 20-30 g; 10 days observation
[5] = Saski and Shah 1965; Barkley et al. 1960/1961; cited from earlier work
[6] = listed as Hexetidine nicotinate

## CCCCC(CC)CN1CN(CC(CC)CCCC)CC(C)(N)C1 (stereo not drawn) [hexetidine nicotinate, 1,3-bis(β-ethylhexyl)-5-amino-5-methylhexahydropyrimidine pyridine-3-carboxylate]
Female NMRI mice; [6]
  Toxicity, LD50 i.p.: 63 mg/kg
  Toxicity, LD50 p.o.: 1,830 mg/kg
Female NMRI mice; relative to hexetidine, mice
  toxicity of hexetidine after salt formation with nicotinic acid: substantially reduced
[1]; [6]
  concentration at which activity is (still) shown (text): 62.5 γ
  Bacteriostatic activity in relation to concentration (table): 62.5 γ
[2]
  antibacterial activity compared with hexetidine: particularly favorable increase in antibacterial activity

## CCCCC(CC)CN1CN(CC(CC)CCCC)CC(C)(N)C1 (stereo not drawn) [hexetidine cinnamate]
Female NMRI mice; listed as Hexetidine cinnamate
  Toxicity, LD50 i.p.: 54 mg/kg
  Toxicity, LD50 p.o.: 1,740 mg/kg
[3]
  solubility: extreme insolubility

## CCCCC(CC)CN1CN(CC(CC)CCCC)CC(C)(N)C1 (stereo not drawn) [hexetidine, 1,3-bis(β-ethylhexyl)-5-amino-5-methylhexahydropyrimidine]
[4]
  LD50 at 240 h: 960 mg/kg
Female NMRI mice; listed as Hexetidine
  Toxicity, LD50 i.p.: 33 mg/kg
[1]
  concentration at which activity is (still) shown (text): 125 γ
[1]; listed as Hexetidine
  Bacteriostatic activity in relation to concentration (table): 125 γ
[5]
  antibacterial activity (words, literature): remarkable antibacterial activity

## CCCCC(CC)CN1CN(CC(CC)CCCC)CC(C)(N)C1 (stereo not drawn) [hexetidine oxalate]
Female NMRI mice; listed as Hexetidine oxalate
  Toxicity, LD50 i.p.: 23 mg/kg
  Toxicity, LD50 p.o.: 970 mg/kg
[1]; listed as Hexetidine oxalate
  concentration at which activity is (still) shown (text): > 500 γ
  Bacteriostatic activity in relation to concentration (table): 500 γ
